≈ marks a conversion by molar mass, not a printed value.
Key:
[1] = test system: A431 cells; test: Cell viability, MTT assay, A431; type: cell-based, human; conditions: for IC50: Homo sapiens, A-431, 24 h, A431, 24 h, MTT endpoint, 10–250 µg/mL tested; for SI MTT: SI = IC50 HaCaT / IC50 A431, MTT endpoint
Method: (§1) The immortal human keratinocyte (HaCaT) and the squamous cell carcinoma (A431) cell lines were obtained from Celltec UB. Cells were grown in DMEM medium (4.5 g/L glucose) supplemented with 10% (v/v) FBS, 2 mM L-glutamine, 100 U/mL penicillin and 100 µg/mL streptomycin at 37 °C, 5% CO2. Cells were routinely cultured in 75 cm^2 culture flasks and were trypsinized using trypsin–EDTA when the cells reached approximately 80% confluence. The trypan blue assay, which allows a direct identification and enumeration of live (unstained) and dead (blue) cells in a given population, was used to evaluate the viability of the cells in the cell suspension obtained.
(§2) HaCaT cells (1 × 10^5 cells/mL) and A431 cells (5 × 10^4 cells/mL) were grown at the defined densities in the 60 central wells of a 96-well plate. Cells were incubated for 24 h in 5% CO2 at 37 °C. Then, the spent medium was removed, and cells were incubated for 24 h with the corresponding compound solutions (1 mg/mL) previously diluted in the minimum amount of DMF (dimethylformamide) and then in DMEM medium supplemented with 5% FBS (100 µL) at the required concentration range (10–250 µg/mL). The viability of the cells upon incubation with the β-lactam derivatives was assayed using 2 different endpoints: NRU and MTT.
(§3) Only living cells can reduce the yellow tetrazolium salt 3-(4,5-dimethyl-2-thiazolyl)-2,5-diphenyltetrazolium bromide (MTT) to insoluble purple formazan crystals. After 24 h of incubation of the cells with the corresponding NPs, the medium was removed, and 100 µL of MTT (Sigma-Aldrich, St. Louis, United States) in PBS (5 mg/mL) diluted 1:10 in culture medium without phenol red and without FBS (Lonza, Verviers, Belgium) was added to the cells. After 3 h of incubation, the medium was removed. Thereafter, 100 µL of DMSO (Sigma-Aldrich, St. Louis, MO, USA) was added to each well to dissolve the purple formazan crystals. Agitation and determination of the absorbance of the extracted solution were performed under the same conditions, as described in Section 3.4.1. Finally, the effect of each treatment was calculated as the percentage of tetrazolium salt reduction by viable cells relative to the control cells (cells without any treatment).
(§4) The corresponding half-maximal inhibitory concentration (IC50) values for the different formulations as a function of cell line and endpoint were determined from the fitting of concentration-dependent viability curves.
(§5) The corresponding selectivity indexes toward tumoral cells were calculated as the following ratio:SI = IC50 (non-tumoral cell line)/IC50 (tumoral cell line) where HaCaT keratinocytes were used as close representatives of a skin model cell line under non-tumoral conditions.

[2] = Hemolysis assay with human erythrocytes; type: cell-based; conditions: human erythrocyte suspension, PBS pH 7.4, mean ± SD; for hemolysis at 10 µg/mL: compound at 10 µg/mL; for hemolysis at 80 µg/mL: compound at 80 µg/mL
Method: Human blood samples were obtained from the Banc de Sang i Teixits de Barcelona (Spain) from the Catalan Department of Health. Blood was deposited in tubes with the anticoagulant EDTA-K3. Blood samples were centrifuged at 3000 rpm at 4 °C for 10 min (Megafuge 2.0 R. Heraeus Instruments, Hanau, Germany) to induce sedimentation. Plasma was extracted with a Pasteur pipette. Next, the residual pellet was washed with PBS at pH 7.4. This procedure was repeated three times to remove residual leukocytes and platelets and to concentrate the erythrocytes. Following the last wash, the erythrocyte suspension was diluted (1:1) in PBS at pH 7.4 to obtain a suitable erythrocyte suspension (cell density of 8 × 10^9 cell/mL).
The hemolysis assay determined the capability of the different compounds to induce hemolysis of the erythrocyte membrane. Stock solutions of each compound at 1 mg/mL in PBS at pH 7.4 were prepared. Different volumes (10–80 µL) were placed in polystyrene tubes, and an aliquot of 25 µL of the erythrocyte suspensions was added to each tube. The final volume was 1 mL. The tubes were incubated at room temperature under rotatory conditions. Next, the tubes were centrifuged at 10,000 rpm for 5 min. The supernatants’ absorbance at 540 nm (Shimadzu UV-160A, Shimadzu, Duisburg, Germany) was compared with that of the control samples hemolyzed with distilled water (positive control). The negative control was obtained by incubating an aliquot of 25 µL of the erythrocyte suspension with PBS at pH 7.4.
The degree of hemolysis was determined with the following equation:Hemolysis (%) = 100 × (Abs − Ab0)/(Abs100 − Abs0) where Abs, Abs0 and Abs100 are the absorbance of test samples, of the suspension treated with isotonic physiological buffer saline (PBS) and of the suspension of complete hemolysis treated with distilled water, respectively.

[3] = test system: HaCaT cells; test: Cell viability, NRU assay, HaCaT; type: cell-based, human; conditions: 24 h, NRU endpoint, 10–250 µg/mL tested; for IC50: Homo sapiens
Method: as §1, §2
(§6) The neutral red uptake (NRU) assay is based on the accumulation of the dye in the lysosomes of viable cells. After the cells were incubated for 24 h with the corresponding systems, the medium was removed, and the solutions were incubated with the NR dye (Sigma-Aldrich, St. Louis, MO, USA) solution (50 µg/mL) dissolved in the medium without FBS and without phenol red (Lonza, Verviers, Belgium) for 3 h. Cells were then washed with sterile PBS, followed by the addition of 100 µL of a solution containing 50% absolute ethanol and 1% acetic acid in distilled water to extract the dye. To promote total dissolution of the dye, plates were placed in a microtiter-plate shaker for 5 min at room temperature. The absorbance of the resulting solutions was measured at 550 nm (Bio-Rad 550 microplate reader, Bio-Rad California, Hercules, CA, USA). Finally, the effect of each treatment was calculated as the percentage of dye uptake by viable cells relative to the control cells (cells without any treatment).
as §4

[4] = test system: HaCaT cells; test: Cell viability, MTT assay, HaCaT; type: cell-based; conditions: Homo sapiens, 24 h, MTT endpoint, 10–250 µg/mL tested
Method: as §1, §2, §3, §4

[5] = test system: A431 cells; test: Cell viability, NRU assay, A431; type: cell-based, human; conditions: for IC50: Homo sapiens, A-431, 24 h, A431, 24 h, NRU endpoint, 10–250 µg/mL tested; for SI NRU: SI = IC50 HaCaT / IC50 A431, NRU endpoint
Method: as §1, §2, §6, §4, §5

[6] = test system: A431 cells; test: Cell viability, A431, MTT and NRU endpoints taken together; type: cell-based; conditions: Homo sapiens, A-431; A431, 24 h, span over or independent of endpoint method
Method: as §1, §2, §6, §3, §4

[7] = Cell viability-screening assays (MTT and NRU), both cell lines; type: cell-based, human; conditions: human, HaCaT keratinocytes and A431 squamous cell carcinoma cells; HaCaT and A431, MTT and NRU, 24 h, 10–250 µg/mL; as a function of cell type and endpoint method; read-out: percentage viability compared to control cells
Method: as §1, §2, §6, §3

[8] = test system: human MCF-7 breast cancer cells; design: method as in PMID 21397510; conditions: cited from earlier work
[9] = test system: HaCaT cells; test: Cell viability, HaCaT, MTT and NRU endpoints taken together; type: cell-based; conditions: Homo sapiens, 24 h, span over or independent of endpoint method
Method: as §1, §2
as §6, with “Cells were then washed with sterile PBS, followed by the addition of 100 µL of a solution containing 50% absolute ethanol and 1% acetic acid in distilled water to extract the dye. To promote total dissolution of the dye, plates were placed in a microtiter-plate shaker for 5 min at room temperature.” left out
Only living cells can reduce the yellow tetrazolium salt 3-(4,5-dimethyl-2-thiazolyl)-2,5-diphenyltetrazolium bromide (MTT) to insoluble purple formazan crystals. […] Agitation and determination of the absorbance of the extracted solution were performed under the same conditions, as described in Section 3.4.1. Finally, the effect of each treatment was calculated as the percentage of tetrazolium salt reduction by viable cells relative to the control cells (cells without any treatment).
as §4

[10] = test system: HaCaT and A431 cells; test: Cell viability-screening assays (MTT and NRU), both cell lines; type: cell-based, human; conditions: regardless of the concentration range
Method: as §1, §2, §6, §3

[11] = human, pH 7.4, human RBC suspension

O=C1N(C2CCCCC2)C(c2ccccc2)C1(Cl)Cl (centres unmarked) [2k]
IC50 [1]: 250 µg/mL (≈ 838 µM)
SI MTT [1]: >1.0
hemolysis at 10 µg/mL [2, 11]: ~0.25%
hemolysis at 80 µg/mL [2, 11]: 0.3 ± 0.21%
IC50 HaCaT NRU [3]: >250 µg/mL
IC50 [3]: ~220 µg/mL (≈ 738 µM)
IC50 [4]: > 250 µg/mL
IC50 [5]: 220 µg/mL (≈ 738 µM)
SI NRU [5]: >1.13
IC50 [6]: > 250 µg/mL
viability at 24 h [7]: < 20%

COc1ccc([C@@H]2[C@@H](c3ccsc3)C(=O)N2c2cc(OC)c(OC)c(OC)c2)cc1O [II]
IC50 [8]: 10 nM

CC(C)N1C(=O)C(Cl)(Cl)C1c1ccccc1 (centres unmarked) [2j]
IC50 [1]: 76.2 µg/mL (≈ 295 µM)
SI MTT [1]: 0.55
hemolysis at 10 µg/mL [2, 11]: 0.01 ± 0.01%
hemolysis at 80 µg/mL [2, 11]: 0.02 ± 0.02%
IC50 [3]: 40.1 µg/mL (≈ 155 µM)
IC50 [4]: 42.1 µg/mL (≈ 163 µM)
IC50 [5]: 37.9 µg/mL (≈ 147 µM)
SI NRU [5]: 1.06
IC50 [6]: 38 to 76 µg/mL (≈ 147 to 294 µM)
IC50 [9]: 40 to 42 µg/mL (≈ 155 to 163 µM)
viability at 24 h [7]: < 20%

Cc1ccc(C2N(C(C)(C)C)C(=O)C2(Cl)Cl)cc1 (centres unmarked) [2e]
IC50 [1]: 180 µg/mL (≈ 629 µM)
SI MTT [1]: 0.51
hemolysis at 10 µg/mL [2, 11]: 0.01 ± 0.01%
hemolysis at 80 µg/mL [2, 11]: 0.2 ± 0.23%
IC50 [3]: 78.8 µg/mL (≈ 275 µM)
IC50 [4]: 92.6 µg/mL (≈ 324 µM)
IC50 [5]: 121 µg/mL (≈ 422 µM)
SI NRU [5]: 0.65
IC50 [6]: 120 to 180 µg/mL (≈ 419 to 629 µM)
IC50 [9]: 78 to 93 µg/mL (≈ 273 to 325 µM)
viability at 24 h [7]: < 20%
selectivity against the cell type (HaCaT vs A431 cytotoxicity) [10]: higher cytotoxicity in HaCaT cells than in A431 cells

CC(C)(C)N1C(=O)C(Cl)(Cl)C1c1cc(F)cc(F)c1 (centres unmarked) [2h]
IC50 [1]: 250 µg/mL (≈ 811 µM)
SI MTT [1]: >1.0
hemolysis at 10 µg/mL [2, 11]: 0.05 ± 0.05%
hemolysis at 80 µg/mL [2, 11]: 0.12 ± 0.09%
IC50 [3]: > 250 µg/mL
IC50 [4]: > 250 µg/mL
IC50 [5]: 250 µg/mL (≈ 811 µM)
SI NRU [5]: >1.0
IC50 [6]: ~250 µg/mL (≈ 811 µM)
IC50 [9]: > 250 µg/mL
viability at 24 h [7]: ≤ 50%
selectivity against the cell type (HaCaT vs A431 cytotoxicity) [10]: the opposite results

Cc1ccccc1C1N(C(C)(C)C)C(=O)C1(Cl)Cl (centres unmarked) [2c]
IC50 [1]: ~250 µg/mL (≈ 874 µM)
SI MTT [1]: 1.0
hemolysis at 10 µg/mL [2, 11]: 0.01 ± 0.01%
hemolysis at 80 µg/mL [2, 11]: 0.01 ± 0.01%
IC50 [3]: > 250 µg/mL
IC50 [4]: ~250 µg/mL (≈ 874 µM)
IC50 [5]: > 250 µg/mL
SI NRU [5]: >1.0
viability at 24 h [7]: ≤ 50%

CC(C)(C)N1C(=O)C(Cl)(Cl)C1c1ccccc1 (centres unmarked) [2b]
IC50 [1]: 46.9 µg/mL (≈ 172 µM)
SI MTT [1]: 0.42
hemolysis at 10 µg/mL ([2]; human RBC suspension): 0.01 ± 0.01%
hemolysis at 80 µg/mL ([2]; human RBC suspension): 2.5 ± 0.97%
IC50 [3]: 48.3 µg/mL (≈ 177 µM)
IC50 [4]: 19.8 µg/mL (≈ 72.8 µM)
IC50 [5]: 29.5 µg/mL (≈ 109 µM)
SI NRU [5]: 1.63
IC50 [6]: 30 to 47 µg/mL (≈ 110 to 173 µM)
IC50 [9]: 20 to 49 µg/mL (≈ 73.5 to 180 µM)
viability at 24 h [7]: < 20%

COc1ccc([C@@H]2[C@@H](c3cccs3)C(=O)N2c2cc(OC)c(OC)c(OC)c2)cc1O [I]
IC50 [8]: 7 nM
